Test results as given in patent US20240108684A1, “DOSING REGIMENS FOR TREATMENT OF FUNGAL INFECTIONS” (priority 2016, published 2024).
≈ marks a conversion by molar mass, not a printed value. Like-named read-outs stand apart in the source and are kept apart here. *1 amine or outer side, *2 acyl side, *3 side chain or, on linkers, in order; H or OH if unused. Where a SMILES comes first, the peptide text is derived from it. Bridges are numbered along the chain shown (N, C = ends). [ ]: non-standard residue; d: D form. The star is where a group is joined. hTyr(3S-OH,4S-OH,3'-OSO3H) = N[C@H](C(=O)O)[C@H](O)[C@@H](O)c1ccc(O)c(OS(=O)(=O)O)c1; Orn(4R-OH,5R-OH) = O=C([C@H](C[C@@H](O)[C@@H](O)N[*:3])N[*:1])[*:2]; Pro(3S-OH,4S-Me) = C[C@H]1CN[C@H](C(=O)O)[C@H]1O; X1 = CCCCCOc1ccc(-c2cc(-c3ccc(C(=O)*)cc3)no2)cc1; Gln(3R-OH) = NC(=O)C[C@@H](O)[C@H](N)C(=O)O; Hyp = O=C(O)[C@@H]1C[C@@H](O)CN1

Assays:
C. albicans (R357) = assay: Disseminated infection model with C. albicans R357, kidney fungal counts; assay type: in vivo, ICR mice
[1] = system: Aspergillus fumigatus (ATCC 13073); assay: Neutropenic mouse model of aspergillosis, survival; assay type: in vivo, mice; conditions: 2 mg/kg IP one dose; 10 days; P<0.05
[2] = system: azole-resistant C. albicans R357 strain; assay: MIC and CLSI susceptibility, azole-resistant C. albicans R357; assay type: cell-based, Candida albicans; conditions: for Susceptibility of strain R357 in words: C. albicans R357 isolated from human blood
C. auris isolates = assay: Candida auris antifungal susceptibility testing (AFST), CLSI M27-A3; assay type: cell-based
[3] = Solubility of test articles in vehicle, visual observation; conditions: WFI; 2 mg/mL
Protocol: Amphotericin B and fluconazole were in powder form. Amphotericin B was dissolved in 0.9% NaCl. Fluconazole was dissolved in water (WFI: water for injection).

Row | Structure (SMILES) | Susceptibility (CLSI) ([2]; C. albicans R357) | Susceptibility of strain R357 in words [2] | Number of resistant C. auris isolates (C. auris isolates; of 38 isolates) | MIC ([2]; Candida albicans) [µg/mL] | also measured
1 | C[C@@H]1[C@H](O)[C@@H](C)/C=C/C=C/C=C/C=C/C=C/C=C/C=C/[C@H](O[C@@H]2O[C@H](C)[C@@H](O)[C@H](N)[C@@H]2O)C[C@@H]2O[C@](O)(C[C@@H](O)C[C@@H](O)[C@H](O)CC[C@@H](O)C[C@@H](O)CC(=O)O[C@H]1C)C[C@H](O)[C@H]2C(=O)O [Amphotericin B, amphotericin B] | S | susceptible | – | – | Reduction in fungal counts (C. albicans (R357); 3 mg/kg IV, 72 hr): two log reduction; Antimicrobial effect versus vehicle (kidney fungal counts) (C. albicans (R357); 1 and 3 mg/kg IV once, 48 and 72 hr after infection): Significant effects; Survival versus vehicle [1]: significantly longer survival than vehicle; MIC ([2]; C. albicans R357, endpoint 100% inhibition): 0.5 µg/mL (≈ 0.541 µM)
2 | CC[C@H](C)C[C@H](C)CCCCCCCCC(=O)N[C@H]1C[C@@H](O)[C@@H](NCCN)NC(=O)[C@@H]2[C@@H](O)CCN2C(=O)[C@H]([C@H](O)CCN)NC(=O)[C@H]([C@H](O)[C@@H](O)c2ccc(O)cc2)NC(=O)[C@@H]2C[C@@H](O)CN2C(=O)[C@H]([C@@H](C)O)NC1=O [Caspofungin, caspofungin] | S | – | 4 | – | Breakthrough at 48 h (C. auris isolates; C. auris strains): most strains breakthrough; MIC ([2]; Candida albicans, C. albicans R357, endpoint 50% inhibition, read-out: MIC): 0.25 µg/mL (≈ 0.229 µM)
3 | OC(Cn1cncn1)(Cn1cncn1)c1ccc(F)cc1F [Fluconazole, fluconazole] | R | resistant | 38 | > 64 | Reduction in colony counts compared to vehicle (C. albicans (R357); 20 mg/kg PO, 48 hr after infection): 51%; Reduction in colony counts compared to vehicle (C. albicans (R357); 20 mg/kg PO, 72 hr after infection): 84%; Statistical significance of reduction versus vehicle (C. albicans (R357); 20 mg/kg PO, one-way ANOVA, Dunnett's test (P>0.05)): not significant; Solubility [3]: S
4 | CCCCCOc1ccc(-c2cc(-c3ccc(C(=O)N[C@H]4C[C@@H](O)[C@@H](O)NC(=O)[C@@H]5[C@@H](O)[C@@H](C)CN5C(=O)[C@H]([C@H](O)CC(N)=O)NC(=O)[C@H]([C@H](O)[C@@H](O)c5ccc(O)c(OS(=O)(=O)O)c5)NC(=O)[C@@H]5C[C@@H](O)CN5C(=O)[C@H]([C@@H](C)O)NC4=O)cc3)no2)cc1 [MICA, micafungin] (X1-[Orn(4R-OH,5R-OH)]T[Hyp][hTyr(3S-OH,4S-OH,3'-OSO3H)][Gln(3R-OH)][Pro(3S-OH,4S-Me)]; lactam 1-C) | – | – | – | – | Number of resistant C. auris isolates (C. auris isolates): 4
5 | CC[C@@H]([C@H](C)O)n1ncn(-c2ccc(N3CCN(c4ccc(OC[C@@H]5CO[C@@](Cn6cncn6)(c6ccc(F)cc6F)C5)cc4)CC3)cc2)c1=O [Posaconazole, posaconazole] | – | resistant | – | > 64 | –
6 | C[C@@H](c1ncncc1F)[C@](O)(Cn1cncn1)c1ccc(F)cc1F [Voriconazole, voriconazole] | R | resistant | – | > 64 | –
